SMILES strings stand for the structures.

This data set is described as follows: Waters ACQUITY UPLC BEH C18, 100 × 2.1 mm, 1.7 µm, 40 °C, 0.28 mL/min, estimated dead time 0.63 min; A: water + 6.5 mM ammonium hydroxide; B: methanol + 6.5 mM ammonium hydroxide; gradient (min/%B) 0/0.5 4/70 4.5/98 5.4/98. The note with it: stereoisomer not certain.
`O=C(O)C(=O)c1ccccc1`: the LC retention time is 2.26 min.
With `NC(CCSSCCC(N)C(=O)O)C(=O)O` (configuration not stated), the LC retention time is 0.929 min.
For the compound `O=CC(O)C(O)C(O)CO` (configuration not stated), the LC retention time was 0.839 min.
Turning to `N#CCc1c[nH]c2ccccc12`, the LC retention time is 4.53 min.
`Nc1ncnc2c1ncn2C1OC(COP(=O)(O)O)C(O)C1O` (configuration not stated): the LC retention time was 0.858 min.
Turning to `CSCCC(O)C(=O)O` (configuration not stated), the LC retention time was 1.5 min.
As for `O=C(O)Cc1ccc(O)c(O)c1`, the LC retention time is 1.1 min.
`O=C(O)CCCCCCC(=O)O`: the LC retention time was 0.826 min.
For `O=C(CCc1ccc(O)cc1)c1c(O)cc(O)cc1OC1OC(CO)C(O)C(O)C1O` (configuration not stated), the LC retention time is 3.5 min.
`CCCCC1=NC2(CCCC2)C(=O)N1Cc1ccc(-c2ccccc2-c2nn[nH]n2)cc1`: the LC retention time was 5.32 min.
The value for `O=C(C=Cc1ccc(O)c(O)c1)OC(Cc1ccc(O)c(O)c1)C(=O)O` (configuration not stated) was 3.14 min; that for `CNC(=C[N+](=O)[O-])NCCSCc1csc(CN(C)C)n1` was 3.86 min; that for `O=C(O)C(O)c1cccc(O)c1` (configuration not stated) was 0.848 min.
With `O=C(O)c1c(O)cccc1O`, the LC retention time was 2.9 min.
In the case of `O=S(=O)(O)Oc1c[nH]c2ccccc12`, the LC retention time is 2.59 min.
As for `NC(N)=Nc1nc(CSCCC(N)=NS(N)(=O)=O)cs1`, the LC retention time is 3.07 min.
Then `C[N+](C)(C)CC(=O)[O-]`, with 0.809 min; and `CC1=C(CCC(=O)O)c2cc3nc(cc4[nH]c(cc5[nH]c(cc1n2)c(C)c5CCC(=O)O)c(CCC(=O)O)c4C)C(CCC(=O)O)=C3C`, with 3.64 min; and `O=C(O)CNC(=O)c1ccccc1O`, with 2.48 min.
`O=S(=O)(O)CCO`: the LC retention time is 0.866 min.
Then `O=C(O)CNC(=O)c1ccco1`, with 1.7 min; and `NC(CO)Cc1cnc[nH]1` (configuration not stated), with 1.28 min; and `NC1C(O)OC(CO)C(O)C1O` (configuration not stated), with 0.802 min.
In the case of `CCCCC(CC)CCC(=O)O` (configuration not stated), the LC retention time is 5.33 min.
With `CCC(C)C(O)C(=O)O` (configuration not stated), the LC retention time is 1.97 min.
For the compound `CN=C(NC#N)NCCSCc1nc[nH]c1C`, the LC retention time is 3.63 min.
Turning to `Cc1ccc(OC2OC(C(=O)O)C(O)C(O)C2O)cc1` (configuration not stated), the LC retention time is 2.77 min.
Consider `CC(=O)OCc1ccccc1`, for which the LC retention time is 2.78 min.
Regarding `NCC1CCC(C(=O)O)CC1` (configuration not stated), the LC retention time is 0.843 min.
`COc1ccc2[nH]cc(CCN)c2c1`: the LC retention time was 3.64 min.
Turning to `CC(=O)C1C(=O)C=C(C)OC1=O` (configuration not stated), the LC retention time is 2.04 min.
The value for `C[N+](C)(C)CCCCC(N)C(=O)[O-]` (configuration not stated) was 0.837 min.
With `O=C(O)c1ccc2ccccc2c1O`, the LC retention time was 4.3 min.
Turning to `O=C(O)c1cc(O)cc(O)c1`, the LC retention time was 0.832 min.
For the compound `COC1OC(CO)C(O)C(O)C1O` (configuration not stated), the LC retention time is 0.979 min.
Regarding `O=C(O)C(=O)Cc1c[nH]c2ccccc12`, the LC retention time is 3 min.
For the compound `Cn1cncc1CC(N)C(=O)O` (configuration not stated), the LC retention time is 0.969 min.
For the compound `NC(Cc1cnc[nH]1)C(=O)O` (configuration not stated), the LC retention time is 0.849 min.
As to `COC(=O)Cc1ccc(O)cc1`, the LC retention time is 4.14 min.
Turning to `O=CCc1c[nH]c2ccccc12`, the LC retention time was 4.4 min.
The value for `CC(CO)C(=O)O` (configuration not stated) was 0.798 min; that for `NC(=O)C1=CN(C2OC(COP(=O)(O)OP(=O)(O)OCC3OC(n4cnc5c(N)ncnc54)C(O)C3O)C(O)C2O)C=CC1` (configuration not stated) was 0.901 min.
For `COc1cc(CC(=O)O)ccc1OS(=O)(=O)O`, the LC retention time was 0.848 min.
For `O=C(O)c1cccc(O)c1O`, the LC retention time was 1.56 min.
The value for `Nc1nc2c(ncn2C2CC(O)C(COP(=O)(O)O)O2)c(=O)[nH]1` (configuration not stated) was 0.923 min; that for `OCC1OC(OCC2OC(O)(CO)C(O)C2O)C(O)C(O)C1O` (configuration not stated) was 0.892 min; that for `[2H]C([2H])([2H])C([2H])([2H])C([2H])([2H])C([2H])([2H])C([2H])([2H])C([2H])([2H])C([2H])([2H])C(=O)O` was 4.67 min.
Turning to `CC=CC=CC(=O)O`, the LC retention time was 2.28 min.
The value for `O=C(O)CCCc1ccccc1` was 3.86 min.
On to `O=C(CO)C(OC1OC(CO)C(O)C(O)C1O)C(O)C(O)CO` (configuration not stated), for which the LC retention time is 0.828 min.
`CNCC(=O)O`: the LC retention time was 0.778 min.
As to `CCCCCCCC(=O)O`, the LC retention time is 4.74 min.
`Oc1cccc2cccnc12`: the LC retention time is 4.19 min.
As to `NCC(O)CCC(N)C(=O)O` (configuration not stated), the LC retention time is 0.78 min.
`O=C(O)CCCCC1CCSS1` (configuration not stated): the LC retention time was 3.95 min.
Then `NC(=O)CCC(N)C(=O)O` (configuration not stated), with 0.764 min.
As for `Cc1ccc(O)c([N+](=O)[O-])c1`, the LC retention time is 4.33 min.
In the case of `O=C(O)CCc1ccc(O)cc1`, the LC retention time was 2.5 min.
In the case of `CCC(C(=O)O)c1ccccc1` (configuration not stated), the LC retention time was 3.74 min.
For `C[N+](C)(C)CC(O)CC(=O)[O-]` (configuration not stated), the LC retention time was 1.23 min.
With `CC(=O)S`, the LC retention time was 2.35 min.
Turning to `Nc1ncnc2c1ncn2C1OC(COP(=O)(O)OP(=O)(O)OCC2OC(O)C(O)C2O)C(O)C1O` (configuration not stated), the LC retention time is 0.924 min.
Take `CC(C)(COP(=O)(O)OP(=O)(O)OCC1OC(n2cnc3c(N)ncnc32)C(O)C1OP(=O)(O)O)C(O)C(=O)NCCC(=O)NCCS` (configuration not stated): the LC retention time was 0.853 min.
Consider `Cc1ccc(OS(=O)(=O)O)cc1`, for which the LC retention time is 2.9 min.
Consider `O=C(O)CCc1cccc(O)c1`, for which the LC retention time was 2.24 min.
Then `O=C(O)c1ccc(O)c(O)c1`, with 0.797 min; and `OCC1OC(OCC2OC(OCC3OC(OC4(CO)OC(CO)C(O)C4O)C(O)C(O)C3O)C(O)C(O)C2O)C(O)C(O)C1O` (configuration not stated), with 0.928 min.
`CC=CC(=O)O`: the LC retention time is 0.869 min.
Consider `COc1cc(C=O)ccc1O`, for which the LC retention time was 2.51 min.
Regarding `CCC(O)C(=O)O` (configuration not stated), the LC retention time is 0.842 min.
The value for `NC(CS)C(=O)NCC(=O)O` (configuration not stated) was 0.946 min; that for `Oc1ccccc1O` was 2.93 min.
On to `COc1ccc(CC(=O)O)cc1OC`, for which the LC retention time was 2.66 min.
Turning to `NCCC(=O)NC(Cc1cnc[nH]1)C(=O)O` (configuration not stated), the LC retention time was 0.9 min.
For the compound `O=c1[nH]c(=O)c2[nH]cnc2[nH]1`, the LC retention time is 0.977 min.
For `CCCC(CCC)C(=O)O`, the LC retention time was 4.23 min.
With `O=Cc1cccc(O)c1`, the LC retention time was 3.55 min.
The value for `O=C(O)Cc1cccc(O)c1` was 1.79 min; that for `CC(C)(O)CC(=O)O` was 1.2 min.
On to `O=C(O)CNC(=O)c1cccc(O)c1`, for which the LC retention time was 1.91 min.
Consider `CCCCC(=O)N(Cc1ccc(-c2ccccc2-c2nn[nH]n2)cc1)C(C(=O)O)C(C)C` (configuration not stated), for which the LC retention time is 4.48 min.
As to `Nc1ncnc2c1ncn2C1OC(COP(=O)(O)OP(=O)(O)OC2OC(CO)C(O)C(O)C2O)C(O)C1O` (configuration not stated), the LC retention time is 0.917 min.

Source of the values: the RepoRT retention time repository (doi:10.1038/s41586-021-03707-9).
